SMILES strings stand for the structures.

The nature of data set [1]: Inhibition of PKA.
The nature of data set [2]: Partition coefficient, log P in phosphate buffer at pH 7.4. The class given is physicochemical.
Data set [3] is described as follows: Biodistribution in tail vein injected Sprague-Dawley rat brain after 5 to 60 mins. The data set is classed as ADME, organism-based. To be noted: iv, read-out: Drug uptake.

As to `O=S(=O)(NCCNC/C=C/c1ccc(Br)cc1)c1cccc2cnccc12`, the half-inhibitory concentration (IC50) (commonly the midpoint of a concentration-inhibition curve) in data set [1] was 0.94 µM.
On to `CN(CCNC/C=C/c1ccc(Br)cc1)S(=O)(=O)c1cccc2cnccc12`, for which, in data set [2], the logD (commonly the decadic logarithm of the distribution of all forms, ionised or not, between an organic phase and buffer at a given pH) is 2.93. This molecule also registered an IC50 in data set [1] of 1.28 µM. In data set [3], the tissue uptake was less than 0.2 %ID/g.

Source of the values: ChEMBL document CHEMBL1149891, “Rationally designed PKA inhibitors for positron emission tomography: Synthesis and cerebral biodistribution of N-(2-(4-bromocinnamylamino)ethyl)-N-[11C]methyl-isoquinoline-5-sulfonamide” (Bioorg Med Chem, 2008).
